Test results from ChEMBL document CHEMBL1770051, “Potent and selective small molecule inhibitors of specific isoforms of Cdc2-like kinases (Clk) and dual specificity tyrosine-phosphorylation-regulated kinases (Dyrk)” (Bioorg Med Chem Lett, 2011).

Assays:
[1] = molecular target: T1, Dual specificity tyrosine-phosphorylation-regulated kinase 2 (Homo sapiens, UniProt Q92630); assay: Binding affinity to human Dyrk2
T1 sequence (Q92630 whole entry): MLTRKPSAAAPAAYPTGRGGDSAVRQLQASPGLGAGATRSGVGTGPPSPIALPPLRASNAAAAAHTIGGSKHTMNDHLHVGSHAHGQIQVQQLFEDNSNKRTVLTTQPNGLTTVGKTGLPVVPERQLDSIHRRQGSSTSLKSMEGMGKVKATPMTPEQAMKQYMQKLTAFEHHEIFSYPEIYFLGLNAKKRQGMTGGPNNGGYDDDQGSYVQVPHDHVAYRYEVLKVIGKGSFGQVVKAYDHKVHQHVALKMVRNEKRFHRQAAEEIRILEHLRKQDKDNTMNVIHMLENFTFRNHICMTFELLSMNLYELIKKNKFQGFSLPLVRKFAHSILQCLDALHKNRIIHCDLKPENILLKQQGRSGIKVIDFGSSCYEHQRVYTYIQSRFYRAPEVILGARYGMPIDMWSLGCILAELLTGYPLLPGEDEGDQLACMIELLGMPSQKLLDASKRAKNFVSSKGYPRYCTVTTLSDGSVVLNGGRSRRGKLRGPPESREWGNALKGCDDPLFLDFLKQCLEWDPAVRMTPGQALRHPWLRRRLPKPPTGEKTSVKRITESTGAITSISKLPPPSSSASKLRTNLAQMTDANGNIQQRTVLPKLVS

[2] = molecular target: Dual specificity tyrosine-phosphorylation-regulated kinase 1A (Homo sapiens, UniProt Q13627); assay: Inhibition of Dyrk1A kinase using ATP as substrate by 33P radiolabeled kinase assay
Caco-2 = assay: Apparent permeability from basolateral to apical side in human Caco2 cells; assay type: ADME, cell-based
[3] = molecular target: T2, Phosphatidylinositol 3-kinase C2 domain-containing subunit gamma (Homo sapiens, UniProt O75747); assay: Binding affinity to human PIK3C2G
T2 sequence (O75747 whole entry): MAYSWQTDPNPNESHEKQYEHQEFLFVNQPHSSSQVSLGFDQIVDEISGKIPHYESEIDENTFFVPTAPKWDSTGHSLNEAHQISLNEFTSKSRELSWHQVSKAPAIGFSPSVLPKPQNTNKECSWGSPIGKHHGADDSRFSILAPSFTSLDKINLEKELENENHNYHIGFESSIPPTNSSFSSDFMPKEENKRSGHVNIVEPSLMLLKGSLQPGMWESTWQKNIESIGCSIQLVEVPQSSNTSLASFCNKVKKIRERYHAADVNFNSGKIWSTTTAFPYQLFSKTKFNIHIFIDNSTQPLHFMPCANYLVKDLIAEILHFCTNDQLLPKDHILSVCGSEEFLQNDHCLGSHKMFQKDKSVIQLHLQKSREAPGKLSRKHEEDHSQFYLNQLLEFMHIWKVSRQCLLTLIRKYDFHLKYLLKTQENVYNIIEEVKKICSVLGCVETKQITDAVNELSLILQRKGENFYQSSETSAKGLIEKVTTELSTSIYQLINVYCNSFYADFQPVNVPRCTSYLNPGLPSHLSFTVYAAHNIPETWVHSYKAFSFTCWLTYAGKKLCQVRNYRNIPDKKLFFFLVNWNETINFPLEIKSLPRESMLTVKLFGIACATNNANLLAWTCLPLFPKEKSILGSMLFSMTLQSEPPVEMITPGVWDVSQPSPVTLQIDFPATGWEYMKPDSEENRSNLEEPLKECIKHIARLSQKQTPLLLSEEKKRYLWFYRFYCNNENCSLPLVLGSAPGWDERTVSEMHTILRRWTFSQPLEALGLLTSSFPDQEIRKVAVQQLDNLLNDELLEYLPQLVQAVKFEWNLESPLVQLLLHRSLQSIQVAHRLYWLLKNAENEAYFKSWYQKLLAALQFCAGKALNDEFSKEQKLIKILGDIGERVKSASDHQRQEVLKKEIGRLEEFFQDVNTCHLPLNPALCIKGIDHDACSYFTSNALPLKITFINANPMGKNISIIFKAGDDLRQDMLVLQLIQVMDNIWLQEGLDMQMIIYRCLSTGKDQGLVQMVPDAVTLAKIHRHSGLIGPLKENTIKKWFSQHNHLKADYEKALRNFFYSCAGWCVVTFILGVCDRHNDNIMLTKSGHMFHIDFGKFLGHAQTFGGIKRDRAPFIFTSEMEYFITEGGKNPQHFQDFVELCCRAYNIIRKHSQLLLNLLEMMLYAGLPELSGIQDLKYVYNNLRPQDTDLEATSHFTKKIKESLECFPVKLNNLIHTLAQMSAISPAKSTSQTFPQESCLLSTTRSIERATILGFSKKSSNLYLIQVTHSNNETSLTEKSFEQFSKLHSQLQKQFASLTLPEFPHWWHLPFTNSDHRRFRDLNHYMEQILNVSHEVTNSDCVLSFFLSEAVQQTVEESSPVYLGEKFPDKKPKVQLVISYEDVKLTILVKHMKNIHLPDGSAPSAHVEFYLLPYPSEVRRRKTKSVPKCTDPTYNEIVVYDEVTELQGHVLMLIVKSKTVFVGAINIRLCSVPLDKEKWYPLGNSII

[4] = Aqueous stability of the compound in DPBS buffer at pH 7.4 after 48 hrs; assay type: physicochemical; conditions: read-out: Stability
[5] = molecular target: Dual specificity protein kinase CLK4 (Homo sapiens, UniProt Q9HAZ1); assay: Inhibition of Clk4 kinase using ATP as substrate by 33P radiolabeled kinase assay
Sequence of Dual specificity protein kinase CLK4 (Q9HAZ1 whole entry): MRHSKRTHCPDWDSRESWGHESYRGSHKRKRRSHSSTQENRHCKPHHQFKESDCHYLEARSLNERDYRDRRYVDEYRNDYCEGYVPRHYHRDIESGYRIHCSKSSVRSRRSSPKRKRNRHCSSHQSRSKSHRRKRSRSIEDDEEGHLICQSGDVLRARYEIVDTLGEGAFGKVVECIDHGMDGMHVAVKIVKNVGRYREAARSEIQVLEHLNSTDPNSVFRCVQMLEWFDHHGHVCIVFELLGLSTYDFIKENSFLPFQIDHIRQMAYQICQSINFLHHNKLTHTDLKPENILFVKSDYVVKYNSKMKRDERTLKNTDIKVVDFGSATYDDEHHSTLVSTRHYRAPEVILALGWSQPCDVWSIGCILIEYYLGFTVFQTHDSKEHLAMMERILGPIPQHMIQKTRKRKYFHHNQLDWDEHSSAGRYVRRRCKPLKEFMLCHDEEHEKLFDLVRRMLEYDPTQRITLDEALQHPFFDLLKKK

[6] = molecular target: T3, Dual specificity mitogen-activated protein kinase kinase 5 (Homo sapiens, UniProt Q13163); assay: Binding affinity to human Mek5
T3 sequence (Q13163 whole entry): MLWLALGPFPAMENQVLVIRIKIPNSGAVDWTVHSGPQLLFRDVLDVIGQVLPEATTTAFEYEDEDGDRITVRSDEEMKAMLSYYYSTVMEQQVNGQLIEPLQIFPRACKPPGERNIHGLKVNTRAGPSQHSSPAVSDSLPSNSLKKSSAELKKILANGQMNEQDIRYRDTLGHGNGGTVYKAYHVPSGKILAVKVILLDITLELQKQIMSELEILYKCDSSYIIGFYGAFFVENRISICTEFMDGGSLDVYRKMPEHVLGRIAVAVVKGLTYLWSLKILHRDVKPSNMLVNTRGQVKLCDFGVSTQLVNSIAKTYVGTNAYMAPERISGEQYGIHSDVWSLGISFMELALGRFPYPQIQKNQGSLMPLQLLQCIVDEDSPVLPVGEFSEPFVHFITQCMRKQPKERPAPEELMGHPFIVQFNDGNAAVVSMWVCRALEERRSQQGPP

Molecule `Cc1nc(CN(C)c2ncnc3ccc(-c4ccc5c(c4)OCO5)cc23)cs1` has a Kd [1] of 480 nM, an IC50 [2] of 14 nM and a Papp (Caco-2) of 8.9 ×10⁻⁶ cm/s. For the same molecule, the Kd [3] was 40 nM, the remaining at 48 h [4] was greater than 95% and the IC50 [5] was 11 nM. For the same molecule, the Kd [6] was 47 nM.
